Results on 3 compounds are retold here after patent US20250353891A1 (MEDIMMUNE LIMITED, priority 2022, published 2025).

As a reminder, the EC50 is the concentration giving half of the maximal effect.

For assay [1], the target named is human glucagon receptor (hGCGR) (Homo sapiens, UniProt P47871). Briefly: cAMP production (HTRF) in CHO cells expressing hGCGR. It counts as cell-based. Also on record: expressed in transfected cells. Conditions: Table 7, peptides modified at position 20; cAMP in CHO hGCGR cells; geometric mean; read-out: hGluc-R EC50. In a few lines:
(§1)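 Read-out: HTRF cAMP (anti-cAMP cryptate donor, cAMP-d2 acceptor in conjugate/lysis buffer), converted to % Delta F and fitted by 4-parameter logistic for EC50. Cell densities were 1×10^5 cells/mL (hGLP-1R) or 2×10^5 cells/mL (hGCGR). Stimulation lasted 30 min at room temperature.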

In assay [2] the target is human GLP-1 receptor (hGLP-1R) (Homo sapiens, UniProt P43220). The assay can be described thus: cAMP production (HTRF) in CHO cells expressing hGLP-1R. It counts as cell-based. Details: expressed in transfected cells. The following applies: for EC50: Table 7, peptides modified at position 20, cAMP in CHO hGLP-1R cells, geometric mean, read-out: hGLP-1R EC50; for % Relative Potency Ratio: Table 7, % GLP-1R activity relative to GLP-1 / % GlucR activity relative to glucagon. In a few lines:
as §1
(cAMP levels reflect the balance of adenylyl cyclase and phosphodiesterase activity.)

Starred links: 1 amine or outer side, 2 acyl side, 3 side chain; linkers in the order of their positions; H or OH if unused. Non-standard residues stand in square brackets, D forms with d. Residues, ends and D or L forms follow the SMILES beside them. Groups on a side chain read outwards from the residue. *: point of attachment. C20 diacid = O=C(O)CCCCCCCCCCCCCCCCCCC(=O)*; C18 diacid = O=C(O)CCCCCCCCCCCCCCCCC(=O)*; γGlu = O=C(O)[C@H](CCC(=O)[*:2])N[*:1]; αMeF = C[C@](N)(Cc1ccccc1)C(=O)O; AEEA = NCCOCCOCC(=O)O; Aib = CC(C)(N)C(=O)O

human GLP-1 receptor (hGLP-1R), sequence (P43220 24-463): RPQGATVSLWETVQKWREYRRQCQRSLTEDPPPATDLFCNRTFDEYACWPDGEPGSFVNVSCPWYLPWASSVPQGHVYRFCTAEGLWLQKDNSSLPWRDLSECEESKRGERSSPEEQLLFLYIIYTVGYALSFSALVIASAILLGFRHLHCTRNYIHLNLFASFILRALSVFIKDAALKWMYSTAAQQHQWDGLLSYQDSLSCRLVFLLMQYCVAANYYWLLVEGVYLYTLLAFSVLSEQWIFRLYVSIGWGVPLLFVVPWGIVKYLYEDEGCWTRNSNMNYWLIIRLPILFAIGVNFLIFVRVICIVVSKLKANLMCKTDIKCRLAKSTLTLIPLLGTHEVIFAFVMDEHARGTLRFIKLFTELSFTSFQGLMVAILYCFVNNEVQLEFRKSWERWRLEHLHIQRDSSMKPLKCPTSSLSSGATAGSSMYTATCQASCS
human glucagon receptor (hGCGR), sequence (P47871 26-477): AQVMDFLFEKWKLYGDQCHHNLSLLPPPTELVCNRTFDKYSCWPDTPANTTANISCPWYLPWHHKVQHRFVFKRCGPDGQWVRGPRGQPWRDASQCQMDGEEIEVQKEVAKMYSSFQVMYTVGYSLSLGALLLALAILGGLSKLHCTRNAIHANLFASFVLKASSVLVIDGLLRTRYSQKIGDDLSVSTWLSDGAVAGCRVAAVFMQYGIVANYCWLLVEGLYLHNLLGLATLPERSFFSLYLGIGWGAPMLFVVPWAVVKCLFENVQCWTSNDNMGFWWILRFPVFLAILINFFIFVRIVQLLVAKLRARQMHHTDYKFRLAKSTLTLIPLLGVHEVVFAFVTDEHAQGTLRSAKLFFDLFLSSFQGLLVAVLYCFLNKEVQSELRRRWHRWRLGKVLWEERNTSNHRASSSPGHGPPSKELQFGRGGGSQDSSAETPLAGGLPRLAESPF

As to `CC[C@H](C)[C@H](NC(=O)[C@H](CO)NC(=O)[C@H](CCC(=O)O)NC(=O)[C@@H](NC(=O)[C@H](Cc1ccccc1)NC(=O)[C@H](CC(=O)O)NC(=O)[C@H](CCCCNC(=O)COCCOCCNC(=O)COCCOCCNC(=O)CC[C@H](NC(=O)CCCCCCCCCCCCCCCCC(=O)O)C(=O)O)NC(=O)[C@H](C)NC(=O)C(C)(C)NC(=O)[C@H](CCCNC(=N)N)NC(=O)[C@H](CO)NC(=O)[C@H](CC(=O)O)NC(=O)[C@H](CC(C)C)NC(=O)[C@](C)(Cc1ccccc1)NC(=O)[C@H](CCCCN)NC(=O)[C@H](CO)NC(=O)[C@@H](NC(=O)[C@H](CC(=O)O)NC(=O)[C@H](CO)NC(=O)[C@@H](NC(=O)[C@](C)(Cc1ccccc1)NC(=O)[C@H](CO)NC(=O)CNC(=O)[C@H](Cc1c[nH]cn1)NC(=O)C(C)(C)NC(=O)[C@@H](N)Cc1c[nH]cn1)[C@@H](C)O)C(C)C)C(C)C)C(=O)N[C@@H](C)C(=O)N[C@@H](CC(N)=O)C(=O)N[C@H](C(N)=O)[C@@H](C)O` [Peptide 251] (H-H[Aib]HGS[αMeF]TSDVSK[αMeF]LDSR[Aib]AK([AEEA-AEEA-γGlu-C18 diacid])DFVESIANT-NH2; N-terminus assumed), the EC50 in assay [1] was 248 pM. Besides, in assay [2], the EC50 is 79.8 pM and the “% Relative Potency Ratio” value is listed as 6.2.
For `CC[C@H](C)[C@H](NC(=O)[C@H](CO)NC(=O)[C@H](CCC(=O)O)NC(=O)[C@@H](NC(=O)[C@H](Cc1ccccc1)NC(=O)[C@H](CC(=O)O)NC(=O)[C@H](CCCCNC(=O)COCCOCCNC(=O)COCCOCCNC(=O)CC[C@H](NC(=O)CCCCCCCCCCCCCCCCCCC(=O)O)C(=O)O)NC(=O)[C@H](C)NC(=O)C(C)(C)NC(=O)[C@H](CCCNC(=N)N)NC(=O)[C@H](CO)NC(=O)[C@H](CC(=O)O)NC(=O)[C@H](CC(C)C)NC(=O)[C@](C)(Cc1ccccc1)NC(=O)[C@H](CCCCN)NC(=O)[C@H](CO)NC(=O)[C@@H](NC(=O)[C@H](CC(=O)O)NC(=O)[C@H](CO)NC(=O)[C@@H](NC(=O)[C@](C)(Cc1ccccc1)NC(=O)[C@H](CO)NC(=O)CNC(=O)[C@H](Cc1c[nH]cn1)NC(=O)C(C)(C)NC(=O)[C@@H](N)Cc1c[nH]cn1)[C@@H](C)O)C(C)C)C(C)C)C(=O)N[C@@H](C)C(=O)N[C@@H](CC(N)=O)C(=O)N[C@H](C(N)=O)[C@@H](C)O` [Peptide 252] (H-H[Aib]HGS[αMeF]TSDVSK[αMeF]LDSR[Aib]AK([AEEA-AEEA-γGlu-C20 diacid])DFVESIANT-NH2), the EC50 was determined as 1310 pM in assay [1] and 119 pM in assay [2]. In addition, the “% Relative Potency Ratio” value in assay [2] stood at 21.7.
As to `CC[C@H](C)[C@H](NC(=O)[C@H](CO)NC(=O)[C@H](CCC(=O)O)NC(=O)[C@@H](NC(=O)[C@H](Cc1ccccc1)NC(=O)[C@H](CC(=O)O)NC(=O)[C@H](CCCCNC(=O)COCCOCCNC(=O)CC[C@H](NC(=O)CCCCCCCCCCCCCCCCC(=O)O)C(=O)O)NC(=O)[C@H](C)NC(=O)C(C)(C)NC(=O)[C@H](CCCNC(=N)N)NC(=O)[C@H](CO)NC(=O)[C@H](CC(=O)O)NC(=O)[C@H](CC(C)C)NC(=O)[C@](C)(Cc1ccccc1)NC(=O)[C@H](CCCCN)NC(=O)[C@H](CO)NC(=O)[C@@H](NC(=O)[C@H](CC(=O)O)NC(=O)[C@H](CO)NC(=O)[C@@H](NC(=O)[C@](C)(Cc1ccccc1)NC(=O)[C@H](CO)NC(=O)CNC(=O)[C@H](Cc1c[nH]cn1)NC(=O)C(C)(C)NC(=O)[C@@H](N)Cc1c[nH]cn1)[C@@H](C)O)C(C)C)C(C)C)C(=O)N[C@@H](C)C(=O)N[C@@H](CC(N)=O)C(=O)N[C@H](C(N)=O)[C@@H](C)O` [Peptide 253] (H-H[Aib]HGS[αMeF]TSDVSK[αMeF]LDSR[Aib]AK([AEEA-γGlu-C18 diacid])DFVESIANT-NH2), the EC50 in assay [1] worked out at 53.1 pM. Moreover, in assay [2], the EC50 worked out at 75.5 pM and the “% Relative Potency Ratio” value amounted to 1.4.
